Source: patent EP4656642A1, “ESTROGEN RECEPTOR PROTEOLYSIS TARGETING CHIMERA COMPOUND AND USE THEREOF” (GAN & LEE PHARM CO., LTD, priority 2023, dated 2024)

Tests used:
Type in all cases: cell-based
MCF-7 cells = assay: Inhibition of cell proliferation of MCF-7 cells (CCK-8, 9 days); conditions: treated for 9 days, CCK-8 kit (Table 6)
Outline: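 MCF-7 cells seeded at 800 cells/well in DMEM with 10% FBS, exposed to a range of compound concentrations for 9 days at 37°C, 5% CO2. Viability read by CCK-8; IC50 derived for proliferation inhibition.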

ERα [1] = target: T1, ERα (Homo sapiens, UniProt P03372); assay: Degradation of ERα in MCF-7 cells (immunoblotting, 4 h)
T1 sequence (P03372 1-595): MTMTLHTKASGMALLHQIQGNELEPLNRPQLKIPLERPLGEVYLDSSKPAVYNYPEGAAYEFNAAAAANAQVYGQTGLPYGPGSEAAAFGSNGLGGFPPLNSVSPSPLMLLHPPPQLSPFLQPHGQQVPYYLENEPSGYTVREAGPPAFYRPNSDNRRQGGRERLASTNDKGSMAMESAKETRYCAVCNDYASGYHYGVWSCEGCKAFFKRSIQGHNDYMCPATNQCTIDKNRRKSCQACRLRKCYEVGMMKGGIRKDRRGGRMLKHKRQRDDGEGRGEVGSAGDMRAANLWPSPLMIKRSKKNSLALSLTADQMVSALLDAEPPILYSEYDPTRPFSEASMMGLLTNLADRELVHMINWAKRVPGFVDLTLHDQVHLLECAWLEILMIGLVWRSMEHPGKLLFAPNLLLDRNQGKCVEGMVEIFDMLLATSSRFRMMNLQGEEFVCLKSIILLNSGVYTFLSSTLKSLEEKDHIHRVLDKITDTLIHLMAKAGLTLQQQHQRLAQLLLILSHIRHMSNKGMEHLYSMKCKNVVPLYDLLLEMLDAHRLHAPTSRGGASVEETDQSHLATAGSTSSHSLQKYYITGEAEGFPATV
Outline: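 MCF-7 cells treated 4 h at 37°C with compounds at 0.15-1000nM final. ERα in lysates measured by immunoblot, with band grayscale normalized to an internal reference protein. Degradation rate calculated against DMSO-treated control.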

ERα [2] = target: T1, ERα; assay: Degradation of ERα in T-47D cells (immunoblotting, 4 h); parameters: host or cells: T-47D
Outline: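 T-47D cells were treated with compound (final 0.15-1000 nM, DMSO) for 4 h at 37°C, 5% CO2. Cells were lysed in RIPA buffer with protease inhibitor, and ERα protein in the cleared lysate was measured by immunoblotting.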

SMILES | IC50 (MCF-7 cells) [nM] | Degradation rate (%) of ERα in MCF-7 cells (ERα [1]; 1nM compound) [%] | Degradation rate (%) of ERα in MCF-7 cells (ERα [1]; 10nM compound) [%] | Degradation rate (%) of ERα in T-47D cells (ERα [2]; 1nM compound) [%] | Degradation rate (%) of ERα in T-47D cells (ERα [2]; 10nM compound) [%]
O=C1CCC(N2Cc3c(ccc4c3OCC43CCN(CC(=O)N4CCC5(CCC(C#Cc6ccc([C@@H]7c8ccc(O)cc8CC[C@@H]7c7ccccc7)cc6)CC5)CC4)CC3)C2=O)C(=O)N1 (some centres unmarked) [B29] | 224 | 7 | 16 | -11 | 14
O=C1CCC(N2Cc3cc4c(cc3C2=O)C2(CCN(CC3CCN(c5ccc([C@@H]6c7ccc(O)cc7CC[C@@H]6c6ccccc6)cc5)CC3)CC2)CO4)C(=O)N1 (some centres unmarked) [H6] | 4170 | -6 | 7 | -35 | -32
CN(C1CCN(c2ccc([C@@H]3c4ccc(O)cc4CC[C@@H]3c3ccccc3)cc2)CC1)[C@H]1CC[C@@H](C(=O)N2CCC3(CC2)COc2c3ccc3c2CN(C2CCC(=O)NC2=O)C3=O)CC1 (some centres unmarked) [B35] | 49.7 | 60 | 72 | 74 | 88
O=C1CCC(N2Cc3c(ccc4c3OC3(CC4)CCN(C4CCC5(CC4)CCN(c4ccc([C@@H]6c7ccc(O)cc7CC[C@@H]6c6ccccc6)cc4)CC5)CC3)C2=O)C(=O)N1 (some centres unmarked) [L20] | 2190 | -12 | 6 | 28 | 41
O=C1CCC(N2Cc3c(ccc4c3OCC43CCN(CCNC(=O)C4CCC5(CC4)CCN(c4ccc([C@@H]6c7ccc(O)cc7CC[C@@H]6c6ccccc6)cc4)CC5)CC3)C2=O)C(=O)N1 (some centres unmarked) [B19] | 4170 | 26 | 72 | 55 | 73
O=C1CCC(N2C(=O)c3ccc4c(c3C2=O)OCC42CCN(C(=O)CN3CCC4(CC3)CCN(c3ccc([C@@H]5c6ccc(O)cc6CC[C@@H]5c5ccccc5)cc3)CC4)CC2)C(=O)N1 (some centres unmarked) [A68] | 19.1 | 11 | 40 | 35 | 77
O=C1CCC(N2Cc3c(ccc4c3OCC43CCN(CC(=O)N4CCC(Oc5ccc([C@@H]6c7ccc(O)cc7CC[C@@H]6c6ccccc6)cc5)CC4)CC3)C2=O)C(=O)N1 (some centres unmarked) [H59] | 7360 | 40 | 34 | 61 | 46
O=C1CCC(N2Cc3c(ccc4c3OCC43CCN(C[C@H]4CC[C@H](C(=O)N5CCN(c6ccc([C@@H]7c8ccc(O)cc8CC[C@@H]7c7ccccc7)cc6)CC5)CC4)CC3)C2=O)C(=O)N1 (some centres unmarked) [G18] | 129 | 63 | 77 | 49 | 78
O=C1CCC(N2C(=O)c3cc4c(cc3C2=O)OC2(CCN(C3CC5(CCN(c6ccc([C@@H]7c8ccc(O)cc8CC[C@@H]7c7ccccc7)cc6)CC5)C3)CC2)C4)C(=O)N1 (some centres unmarked) [K1] | 511 | -2 | -3 | 7 | 27
C[C@@H]1Cc2c(ccc3[nH]ncc23)C(c2c(F)cc(N3CCC4(CCC(N5CCC6(CC5)COc5c6ccc6c5CN(C5CCC(=O)NC5=O)C6=O)CC4)CC3)cc2F)N1CC(F)F (some centres unmarked) [G20] | 49.7 | 22 | 45 | 51 | 69
O=C1CCC(N2Cc3cc4c(cc3C2=O)C2(CCN(C3CCC5(CC3)CCN(c3ccc([C@@H]6c7ccc(O)cc7CC[C@@H]6c6ccccc6)cc3)CC5)CC2)CO4)C(=O)N1 (some centres unmarked) [L5] | 830 | 6 | 4 | 12 | 45
O=C1CCC(N2Cc3c(ccc4c3OCC43CCN(C4CC5(CCC6(CC5)CN(c5ccc([C@@H]7c8ccc(O)cc8CC[C@@H]7c7ccccc7)cc5)C6)C4)CC3)C2=O)C(=O)N1 (some centres unmarked) [A81] | 22.3 | -39 | 20 | -33 | 45
O=C1CCC(N2Cc3cc4c(cc3C2=O)OC2(CC4)CN(C3CCC(N4CCN(c5ccc([C@@H]6c7ccc(O)cc7CC[C@@H]6c6ccccc6)cc5)CC4)CC3)C2)C(=O)N1 (some centres unmarked) [B16] | 740 | -36 | 16 | 24 | 60
O=C1CCC(N2Cc3c(ccc4c3OCC43CCN(CC4CCN(C5CCN(c6ccc([C@@H]7c8ccc(O)cc8CC[C@@H]7c7ccccc7)cc6)CC5)CC4)CC3)C2=O)C(=O)N1 (some centres unmarked) [K6] | 724 | 17 | 62 | 36 | 58
O=C1CCC(N2Cc3cc4c(cc3C2=O)OC2(CC4)CN(C3CCN(C(=O)C4CCN(c5ccc([C@@H]6c7ccc(O)cc7CC[C@@H]6c6ccccc6)cc5)CC4)CC3)C2)C(=O)N1 (some centres unmarked) [A82] | 448 | 16 | 51 | 51 | 78
CN(C)C(=O)[C@H]1CC(N2CCC3(CC2)COc2c3ccc3c2CN(C2CCC(=O)NC2=O)C3=O)CCN1C1CC2(CCN(c3ccc([C@@H]4c5ccc(O)cc5CC[C@@H]4c4ccccc4)cc3)CC2)C1 (some centres unmarked) [K32] | 0.779 | 66 | 88 | 67 | 90
C[C@@H]1Cc2c(ccc3[nH]ncc23)C(c2ccc(N3CCC4(CCN(C(=O)CN5CCC6(CC5)COc5c6ccc6c5CN(C5CCC(=O)NC5=O)C6=O)C4)CC3)cn2)N1CC(F)(F)F (some centres unmarked) [J14] | 9660 | 5 | 39 | 55 | 74
C[C@@H]1Cc2c([nH]c3ccccc23)[C@@H](c2c(F)cc(N3CCC4(CC3)CC(N3CC[C@@H](N5CCC6(CC5)COc5c6ccc6c5CN(C5CCC(=O)NC5=O)C6=O)[C@@H](F)C3)C4)cc2F)N1CC(F)F (some centres unmarked) [D10] | 12.5 | 3 | 58 | 24 | 77
O=C1CCC(N2Cc3c(ccc4c3OCC43CCN(C4CC5(C4)CN(C4CCN(c6ccc([C@@H]7c8ccc(O)cc8CC[C@@H]7c7ccccc7)cc6)CC4)C5)CC3)C2=O)C(=O)N1 (some centres unmarked) [K12] | 30 | 3 | 44 | 18 | 60
